Test results from publication PMC7738508, “A therapeutic combination of two small molecule toxin inhibitors provides broad preclinical efficacy against viper snakebite” (Nature Communications, 2020).
“And” between values parts separate entries of the source, which are not always exact repeats. Equal values may be shown once. Read-outs that look alike come from different tables or passages of the source.

Legend:
[1] = tested on: pro- and anticoagulant fractions of D. russelii venom; assay: nanofractionation with plasma coagulation assay; type: biochemical, Daboia russelii; settings: nanofractionated D. russelii venom; inhibitor 0.0064 to 20 µM
Procedure: Fifty microlitres of venom solution (D. russelii; 1 mg/ml) was injected into a Shimadzu LC-2010 system with nanofractionation in parallel. Separation was performed on a Waters XBridge reversed-phase C18 column (250 × 4.6 mm^2 column with 3.5 μm pore-size) at 30 °C. The total flow rate of the mobile phase solution was 0.5 ml/min with eluent A (98% H2O, 2% acetonitrile [ACN], 0.1% formic acid [FA]) and eluent B (98% ACN, 2% H2O, 0.1% FA). Liquid chromatography gradients consisted of a linear increase of mobile phase B from 0 to 50% in 20 min, followed by a linear increase to 90% B in 4 min, then isocratic at 90% B for 5 min, after which the percentage of mobile phase B was decreased from 90 to 0% in 1 min, followed by 10 min at 0% B to re-equilibrate. The effluent was split in a 1:9 ratio of which the 10% fraction was sent to a Shimadzu SPD-M20A prominence diode array detector and the 90% fraction was directed to a nanofractionation collector which dispensed the fractions into transparent 384-well plates (F-bottom, rounded square well, polystyrene, without lid, clear, non-sterile; Greiner Bio One, Alphen aan den Rijn, The Netherlands) at a resolution of 6 s/well. The collector used was either a commercially available FractioMate^TM nanofractionator (SPARK-Holland & VU, Netherlands, Emmen & Amsterdam) controlled by FractioMator software v1.0 (Spark-Holland, The Netherlands, Emmen) or a modified Gilson 235P autosampler controlled by in-house written software Ariadne v1.8 (VU Amsterdam). The well plates with venom fractions were then dried overnight in a Christ Rotational Vacuum Concentrator (RVC 2 − 33 CD plus, Zalm en Kipp, Breukelen, The Netherlands) equipped with a cooling trap, and maintained at −80 °C during operation. The freeze-dried plates were then stored at −80 °C prior to bioassaying.
The final assay concentrations of the inhibitors tested in the assay were 20, 4, 0.8, 0.16, 0.032, and 0.0064 µM. The plates were then incubated for 30 min at room temperature, and during this time bovine plasma (Sterile Filtered, Biowest, Nuaille, France) was defrosted in a water bath and centrifuged for 4 min at 805 × g prior to use. […] The plate was then read immediately for absorbance kinetically for 100 min at 595 nm at 25 °C using a Varioskan Flash Multimode Reader (Thermo Fisher Scientific, Ermelo, The Netherlands). The obtained results were normalized by dividing the slope measured in each well by the median of all slope values across the plate, and the processed coagulation chromatograms were plotted to visualize very fast coagulation, medium increased coagulation and anticoagulation, as previously described.

[2] = tested on: procoagulant activity of Echis carinatus venom (citrated bovine plasma); assay: plasma clotting assay; type: biochemical; set-up: key: max of first derivative of A595 clot curve (max clotting velocity); settings: Echis carinatus venom 100 ng, independent repeats
Procedure: We used a previously developed plasma clotting assay[35] to measure venom-induced coagulation. Briefly, 100 ng of each venom was incubated at 37 °C for 30 min in the presence or absence of inhibitors (150 µM to 150 nM final concentrations). The final reaction consisted of 10 µl venom ± inhibitors in PBS, 20 µl 20 mM CaCl2, and 20 µl citrated bovine plasma (VWR). The samples were pipetted in triplicate into 384-well plates, and absorbance monitored at 595 nm for 2 h at 25 °C on an Omega FLUOstar instrument. We calculated the maximum clotting velocity of each of the curves as per clot waveform analysis, by calculating the maximum of the first derivative. The means of at least three independent experimental runs for each condition were plotted at each inhibitor concentration with SEMs.

[3] = cited from earlier work

CNC(=O)[C@@H](NC(=O)[C@H](CC(C)C)[C@H](O)C(=O)NO)C(C)(C)C [marimastat]
inhibition of anticoagulant venom fractions [1]: not neutralized | inhibition of procoagulant venom fractions [1]: effectively inhibited in a dose-dependent manner | maximum clotting velocity ([2]; inhibitor 15 µM): 0.03177 and 0.03235 | maximum clotting velocity ([2]; inhibitor 150 µM): 0.03353 and 0.03265 and 0.02823 | daily doses with no notable side effects ([3]; 28 days, patients with advanced pancreatic cancer): 75 mg | single doses with no notable side effects [3]: up to 800 mg | bidaily doses with no notable side effects ([3]; for 6.5 days): 200 mg | oral bioavailability ([3]; no reference given): 70% | half-life ([3]; oral): 8 to 10 h | time to peak plasma concentrations post-administration ([3]; oral): 1.5 to 3 h | oral bioavailability ([3]; vs parenteral administration of batimastat): excellent oral bioavailability
